Assay results as given in patent publication EP1166644A1, “Enzymatic biodegradation of halogenated compounds” (priority 2000, dated 2002).

Tested on: baker's yeast
Experiment: Bioconversion (biodegradation) assay with baker's yeast
Type: cell-based, Saccharomyces caerevisae (baker's yeast)
Procedure: Biodegradation assays were carried out according to the following steps: • Step 1. Culture of microorganisms: The microorganisms studied were allowed to grow on a defined medium, in order to increase biomass and develop possible enzymatic activity. • Step 2. Bioconversion assay: The desired amount of 3-MCPD was added to the reactor, and samples were withdrawn at different reaction time to follow the kinetics of biodegradation. • Step 3. Centrifugation: Samples withdrawn from the mixture were centrifuged, the pellet was discarded and the supernatant was used for further treatment and analysis. • Step 4. Extraction of 3-MCPD: 3-MCPD was extracted from the supernatant using Extrelut columns or the Accelerated Solvent Extractor method, and partitioned into ethyl acetate. • Step 5. Preparation of samples for analysis: The organic phase was concentrated with a rotary evaporator, and transferred to a vial, containing an internal standard (3-monochloro-1-propanol (3-MCP) or 3-MCPD-d5). • Step 6. Analysis: Final detection and monitoring of substrate was accomplished by gas chromatography techniques (GC or GC-MS).
Conditioning of baker's yeast: 60g active dry baker's yeast was added to 300 g distilled water under magnetic stirring for 20 min at room temperature. The yeast cream was then centrifuged at 5000 rpm for 15 min, at 4°C (Beckman Model J2-21M Centrifuge) and supernatant was discarded. The pellet was resuspended in equivalent amount (225ml) of distilled water. The obtained yeast cream solution (pH 5.8) was then used for bioconversion assays.
Bioconversion assay: 150 g of the yeast cream solution obtained as described above was placed in a 200 ml reactor vessel equipped with an electrode and a magnetic stirrer (500 rpm). The flask was kept at 28°C using an oil bath equipped with a thermostat (Heidolph MR 3003), and pH was adjusted to the desired pH condition (pH 6.2, pH 7.0, or pH 8.2) with 2M NaOH solution.
[…] The pH was automatically maintained throughout the reaction with regular adjunction of 2M NaOH (Metrohm 691 pH-Meter, equipped with Metrohm Impulsomat 614 and Dosimat 665).
Aliquots of 6 ml were withdrawn from the reaction mixture at different incubation times and centrifuged at 3000 rpm, during 4 min, at 25°C (Beckman Model TJ6 Centrifuge). The pellet was discarded, and the supernatant absorbed onto an Extrelut 3 column or hydromatrix column (placed in the Accelerated Solvent Extractor). 3-MCPD was then partitioned into ethyl acetate, volume was reduced to 2 ml by rotary evaporation, and transferred to a 10 ml graduated tube. 1ml of the internal standard (3-MCP or 3-MCPD-d5) was added to the vial and made up to volume with ethyl acetate. Finally, the extract was dried over anhydrous sodium sulfate, and analyzed for 3-MCPD content by gas chromatography (GC or GC-MS).
The study of 3-MCPD biodegradation by baker's yeast was made by varying different parameters and measuring their influence on the yield and rate of 3-MCPD degradation. The effect of the following parameters were studied: • pH 6.2, 7.0 and 8.2 • presence of glucose in the reaction mixture • substrate stereospecificity: (R)-and (S)-enantiomers • substrate concentration: 800 ppb and 3000 ppm
The results of the biodegradation assays are reported as a percentage of conversion of 3-MCPD as function of reaction time.
Final conversion values were referred to 48h reaction time in order to compare the different biodegradation assays performed. Comparison of bioconversions after 48 h reaction time has been chosen in respect of the enzymatic nature of the reaction studied (many non-enzymatic reactions could occur in a longer time frame).
A control vial (reaction medium with substrate, but without microorganism) was run alongside the reaction. This control permitted the subtraction of the non-enzymatic conversion of 3-MCPD under the experimental conditions tested. […]

[1] = 3000 ppm, pH 8.2, 28°C, without glucose
[2] = 800 ppb, pH 8.2, 28°C, without glucose
[3] = 3000 ppm, pH 6.2, 28°C, without glucose
[4] = 3000 ppm, pH 7.0, 28°C, without glucose

OC[C@H](O)CCl [(S)-3-MCPD, (S)-(+)-3-monochloro-1,2-propanediol]
Biodegradation of 3-MCPD with baker's yeast, After 24 h [1]: 55% | Biodegradation of 3-MCPD with baker's yeast, After 48 h [1]: 85%

OC[C@@H](O)CCl [(R)-3-MCPD, (R)-(-)-3-monochloro-1,2-propanediol]
Biodegradation of 3-MCPD with baker's yeast, After 24 h [1]: 20% | Biodegradation of 3-MCPD with baker's yeast, After 48 h [1]: 60%

OCC(O)CCl (racemic) [(R,S)-3-MCPD, 3-Monochloro-1,2-propanediol]
Biodegradation of 3-MCPD with baker's yeast, After 24 h [2]: 50% | Biodegradation of 3-MCPD with baker's yeast, After 24 h (800 ppb, pH 8.2, 28°C, without glucose, listed as racemic 3-MCPD): about 50% | Biodegradation of 3-MCPD with baker's yeast, After 48 h [2]: 70% | highest conversion (2000 ppm, pH 8.2, in the presence of glucose, after 24h reaction): 60% | Biodegradation of 3-MCPD with baker's yeast, After 24 h [3]: 8% | Biodegradation of 3-MCPD with baker's yeast, After 48 h [3]: 12% | Biodegradation of 3-MCPD with baker's yeast, After 24 h [4]: 20% | Biodegradation of 3-MCPD with baker's yeast, After 48 h [4]: 35% | Biodegradation of 3-MCPD with baker's yeast, After 24 h [1]: 26% | Biodegradation of 3-MCPD with baker's yeast, After 48 h [1]: 45% | Biodegradation of 3-MCPD with baker's yeast, After 48 h (3000 ppm, pH 8.2, 28°C, without glucose, listed as 3-MCPD): 45% | Biodegradation of 3-MCPD with baker's yeast, After 48 h (3000 ppm, pH 8.2, 28°C, without glucose, listed as racemic 3-MCPD): about 50% | Biodegradation of 3-MCPD with baker's yeast, After 24 h (3000 ppm, pH 8.2, + glucose): 60% | Biodegradation of 3-MCPD with baker's yeast, After 48 h (3000 ppm, pH 8.2, + glucose): 68%
